The assay deals with T1, Renin (Homo sapiens, UniProt P00797).
T1 sequence (P00797 whole entry): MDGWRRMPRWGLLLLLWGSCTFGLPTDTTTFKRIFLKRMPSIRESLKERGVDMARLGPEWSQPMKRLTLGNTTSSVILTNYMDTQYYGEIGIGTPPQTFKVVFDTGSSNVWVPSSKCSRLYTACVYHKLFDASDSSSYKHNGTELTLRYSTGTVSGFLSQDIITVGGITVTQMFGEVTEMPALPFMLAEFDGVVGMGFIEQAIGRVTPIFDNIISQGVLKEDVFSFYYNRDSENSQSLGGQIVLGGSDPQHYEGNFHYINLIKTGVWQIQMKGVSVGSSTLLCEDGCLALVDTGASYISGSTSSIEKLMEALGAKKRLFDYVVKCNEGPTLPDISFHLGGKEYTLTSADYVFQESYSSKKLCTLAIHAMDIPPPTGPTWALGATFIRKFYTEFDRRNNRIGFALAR
Kind of assay: FRET Assay: Inhibition activity of renin using FRET assay.
With `CCOC[C@@H](CC(C)C)NC(=O)[C@@H]1CNC[C@H](C(=O)N(c2cc(OC)c(C(C)C)cn2)C2CC2)C1`, the IC50 (in general, the concentration that gives 50% inhibition) was found to be 900 pM. Take `CCOC[C@H](NC(=O)[C@@H]1CNC[C@H](C(=O)N(c2ccc(C(C)C)cn2)C2CC2)C1)C(C)C`: the IC50 was determined as 900 pM. Under `CCOC[C@@H](CC(C)C)NC(=O)[C@@H]1CNC[C@H](C(=O)N(CC(C)C)c2cc(OC)c(C(C)C)cn2)C1` stands 800 pM. Under `CCOC[C@@H](CC(C)C)NC(=O)[C@@H]1CNC[C@H](C(=O)N(c2cc(OCC)c(CC)cn2)C2CC2)C1` stands 600 pM. Under `CCOC[C@@H](CC(C)C)NC(=O)[C@@H]1CNC[C@H](C(=O)N(c2ccc(C(C)C)cn2)C2CC2)[C@@H]1O` stands 2000 pM; under `CCOC[C@@H](CC(C)C)NC(=O)[C@@H]1CNC[C@H](C(=O)N(c2cc(OCCCOC)c(C(C)C)cn2)C2CC2)[C@@H]1O`, 400 pM. Compound `CCOC[C@@H](NC(=O)[C@@H]1CNC[C@H](C(=O)N(c2cc(OC)c(C(C)C)cn2)C2CC2)C1)C1CCCCC1` gave an IC50 of 300 pM.

As to `CCOC[C@@H](CC(C)C)NC(=O)[C@@H]1CNC[C@H](C(=O)N(c2ccc(C(C)(C)OC)cn2)C2CC2)[C@@H]1O`, the IC50 amounted to 2000 pM. This IC50 lies about 6.7-fold higher than the previous one.

(Values after ChEMBL document CHEMBL3639303, “Organic compounds” (2013).)
